The record followed here is patent publication US9868935B2, “Composition and method of stem cells for preservation of cardiac tissue” (CRIOESTAMINAL, SAÚDE E TECNOLOGIA, SA., priority 2012, dated 2018).

The subject of data set [1] is CD34+ cells encapsulated in fibrin gel. The data set can be described thus: Survival of CD34+ cells encapsulated in fibrin gels in hypoxia and serum deprived conditions. The data set is classed as cell-based, human. As to conditions: LPA-treated. How it is done: In an embodiment, fibrin gels were formed by crosslinking of fibrinogen in the presence of thrombin (both from Sigma-Aldrich). The fibrinogen solution was prepared by dissolving human fibrinogen in Tris-buffered saline (TBS) (preferably, Sigma-Aldrich), pH 7.4 (20 mg/mL), and then sterilized by filtering through a 0.22 μm syringe filter (Acrodisc, Pall, NY, USA). Fresh thrombin solutions were prepared by dissolving human thrombin in TBS at pH 7.4 at a concentration of 50 U/mL. Fibrin gels (200 μL, unless otherwise stated) were prepared by mixing three different components: fibrinogen (10 mg/mL), CaCl2 (preferably, Merck, NJ, USA) ([…]) and thrombin (0.2 U/mL). This solution was allowed to gel at 37° C. and 100% relative humidity.
Injectable scaffolds are very promising vehicles to deliver stem cells for regenerative medicine since they provide a favorable structural support for cell survival and proliferation (Pedroso, D. C., et al., Improved survival, vascular differentiation and wound healing potential of stem cells co-cultured with endothelial cells. PLoS One, 2011. 6(1): p. e16114; Kraehenbuehl, T. P., R. Langer, and L. S. Ferreira, Three-dimensional biomaterials for the study of human pluripotent stem cells. Nat Methods, 2011. 8(9): p. 731-6; Nakamuta, J. S., et al., Cell therapy attenuates cardiac dysfunction post myocardial infarction: effect of timing, routes of injection and a fibrin scaffold. PLoS One, 2009. 4(6): p. e6005.). Several studies have shown that cells transplanted with scaffolds in the cardiac setting improved cell survival, induced angiogenesis and preserved cardiac function after infarction (Nakamuta, J. S., et al., Cell therapy attenuates cardiac dysfunction post myocardial infarction: effect of timing, routes of injection and a fibrin scaffold. PLoS One, 2009. 4(6): p. e6005; Christman, K. L., et al., Fibrin glue alone and skeletal myoblasts in a fibrin scaffold preserve cardiac function after myocardial infarction. Tissue Eng, 2004. 10(3-4): p. 403-9; Kraehenbuehl, T. P., et al., Human embryonic stem cell-derived microvascular grafts for cardiac tissue preservation after myocardial infarction. Biomaterials, 2011. 32(4): p. 1102-9; Kutschka, I., et al., Collagen matrices enhance survival of transplanted cardiomyoblasts and contribute to functional improvement of ischemic rat hearts. Circulation, 2006. 114(1 Suppl): p. I167-73). […] Cell viability was evaluated by flow cytometry using Annexin V/propidium iodide (PI) staining.

For data set [2], the system named is CD34+ cells. The data set can be described thus: CD34+ cell self-renewal/differentiation by FACS. The data set is classed as cell-based, human. To be noted: LPA-treated; after 1 day of hypoxia. The protocol: In an embodiment, multicolor analysis for progenitor and stem cell phenotyping was performed on a FACS Calibur cytometer (preferably, Becton Dickinson). Cells were stained for 1 h with APC or pacific blue antihuman CD45 (preferably, e-Bioscience), FITC anti-mouse CD45 (preferably, -Bioscience), PeCy7 anti-human CD33 (preferably, BD Bioscience), PE anti-human CD11b (preferably, BD Bioscience), FITC anti-human CD19 (preferably, BD Bioscience), PeCy7 anti-human CD3 (preferably, BD Bioscience), PE anti-human Glycophorin A (preferably, BD Bioscience), FITC anti-human CD41 (preferably, e-bioscience), and PeCy7 anti-human CD56 (preferably, BD Bioscience), washed with staining media and analyzed.
To examine the effect of LPA in CD34+ cell self-renewal/differentiation, untreated and LPA-treated CD34+ cells were cultured in X-vivo medium in hypoxia conditions for 1 day followed or not by 6 days in normoxia and finally characterized by FACS. After 1 day of hypoxia, both untreated or LPA-treated CD34+ cells started to differentiate into mast cells (between 14 and 17%) and neutrophils (between 5 and 8%) (FIG. 3B). Only 78% and 72% of the untreated or LPA-treated CD34+ cells express CD34 marker. CD34 expression is higher in cells that have been exposed to hypoxia than in normoxia conditions since only 6% of the cells cultured in normoxia conditions for 24 h express CD34 marker. […]
Background: A flow cytometer gives signals particle by particle.

Take lysophosphatidic acid [LPA]: the viable cells in data set [1] (encapsulated in fibrin gel, hypoxia day 1) was 69.0±0.7%; in data set [1] (encapsulated in fibrin gel, hypoxia day 3) it was 51.1±0.8%; in data set [1] (non-encapsulated, hypoxia day 1) it was 76.7±1.5%; in data set [1] (non-encapsulated, hypoxia day 3) it was 37.2±6.6%. Further, in data set [2], the “cells expressing CD34 marker” value came to 72%.
